Assay results: ChEMBL document CHEMBL1833796, “Locating the binding sites of anticancer tamoxifen and its metabolites 4-hydroxytamoxifen and endoxifen on bovine serum albumin” (Eur J Med Chem, 2011)

Key:
Assay type in all cases: ADME
Albumin [1] = target: T1, Albumin (Bos taurus, UniProt P02769); experiment: Effect on secondary structure of bovine serum albumin assessed as beta antiparallel content at 0.5 uM at pH 7.4 by circular dichroism method (reference value: 3 %); conditions: cattle, pH 7.4, 0.5 µM
Albumin [2] = target: T1, Albumin; experiment: Binding affinity to bovine serum albumin at pH 7.4 by Stern-Volmer plot; conditions: cattle, isolated protein
Albumin [3] = target: T1, Albumin; experiment: Effect on secondary structure of bovine serum albumin assessed as random coil content at 0.5 uM at pH 7.4 by circular dichroism method (reference value: 6 %); conditions: cattle, pH 7.4, 0.5 µM
Albumin [4] = target: T1, Albumin; experiment: Binding affinity to bovine serum albumin at pH 7.4 by McGhee and von Hippel method; conditions: cattle, isolated protein
Albumin [5] = target: T1, Albumin; experiment: Effect on secondary structure of bovine serum albumin assessed as turn structure content at 0.5 uM at pH 7.4 by circular dichroism method (reference value: 12 %); conditions: cattle, pH 7.4, 0.5 µM
Albumin [6] = target: T1, Albumin; experiment: Effect on secondary structure of bovine serum albumin assessed as alpha-helix content at 0.5 uM at pH 7.4 by circular dichroism method (reference value: 63 %); conditions: cattle, pH 7.4, 0.5 µM
Albumin [7] = target: T1, Albumin; experiment: Binding affinity to bovine serum albumin at pH 7.4 by fluorescence spectroscopy; conditions: cattle, isolated protein
Albumin [8] = target: T1, Albumin; experiment: Binding affinity to bovine serum albumin at 1 to 100 uM at pH 7.4 by fluorescence spectroscopy; conditions: cattle, isolated protein, pH 7.4, 100 µM
Albumin [9] = target: T1, Albumin; experiment: Effect on secondary structure of bovine serum albumin assessed as beta-sheet content at 0.5 uM at pH 7.4 by circular dichroism method (reference value: 16 %); conditions: cattle, pH 7.4, 0.5 µM

T1 sequence (P02769 whole entry): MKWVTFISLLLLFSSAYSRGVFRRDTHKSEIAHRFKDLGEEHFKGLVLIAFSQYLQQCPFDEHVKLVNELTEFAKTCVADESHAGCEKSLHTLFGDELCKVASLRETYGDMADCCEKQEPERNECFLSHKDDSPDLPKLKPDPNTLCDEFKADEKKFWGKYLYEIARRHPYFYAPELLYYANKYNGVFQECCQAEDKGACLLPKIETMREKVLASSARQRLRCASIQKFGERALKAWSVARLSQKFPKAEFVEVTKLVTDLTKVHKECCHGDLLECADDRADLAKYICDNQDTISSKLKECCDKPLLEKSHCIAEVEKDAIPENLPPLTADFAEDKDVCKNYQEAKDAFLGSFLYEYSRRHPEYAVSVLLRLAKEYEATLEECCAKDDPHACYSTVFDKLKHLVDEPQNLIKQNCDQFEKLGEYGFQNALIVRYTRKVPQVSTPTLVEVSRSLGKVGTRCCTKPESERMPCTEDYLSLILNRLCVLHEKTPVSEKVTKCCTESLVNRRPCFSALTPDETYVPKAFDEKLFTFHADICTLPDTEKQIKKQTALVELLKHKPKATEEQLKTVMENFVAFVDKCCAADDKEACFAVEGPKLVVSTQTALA

Row | SMILES | Activity (Albumin [1]) | K (Albumin [2]) | Activity (Albumin [3]) | K (Albumin [4]) | Activity (Albumin [5]) | Activity (Albumin [6]) | K (Albumin [7]) | Activity (Albumin [8]) | Activity (Albumin [9])
1 | CC/C(=C(\c1ccccc1)c1ccc(OCCN(C)C)cc1)c1ccccc1 [TAMOXIFEN] | 3% | 1.96 ×10⁴ /M | 10% | 1.65 ×10⁴ /M | 20% | 41% | 1.96 ×10⁴ /M | 98% | 26%
2 | CCC(=C(c1ccc(O)cc1)c1ccc(OCCN(C)C)cc1)c1ccccc1 | 3% | 1.8 ×10⁴ /M | 20% | 1.5 ×10⁴ /M | 21% | 39% | 1.8 ×10⁴ /M |  | 17%
3 | CC/C(=C(\c1ccc(O)cc1)c1ccc(OCCNC)cc1)c1ccccc1 [ENDOXIFEN] | 3% | 0.8 ×10⁴ /M | 15% | 1.1 ×10⁴ /M | 21% | 47% | 8.01 ×10³ /M |  | 14%
